The text below walks through data of PubChem BioAssay AID2060352 (Molecular Pharmacology Branch, DTP, NCI, 2025).

Where “and” joins values, the source holds several entries; their conditions need not be identical. Equal values may be shown once.

The subject of the test is 616215-338-R-J1-PDC spheroid with HUVEC/MSC, viability. The test is described as follows: Anticancer human tumor 616215-338-R-J1-PDC patient-derived colon adenocarcinoma cell line growth inhibition [TAK]. The settings on record: for viability, T/C: stronger effect = lower value. Summed up:
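Drug combinations, each paired with TAK-243 or ipatasertib, were tested on multi-cell spheroids of 60% malignant cells, 25% HUVEC and 15% hMSC. Top concentrations were at or near the clinical Cmax (10 microM if undetermined), decreasing by half-log; viability is given as % test/control.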
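Also: spheroids exposed to drugs for 7 days before readout.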

Turning to `Cc1nc(NC(=O)N2CCCC2C(N)=O)sc1-c1ccnc(C(C)(C)C(F)(F)F)c1` (centres undefined) + CC(C)NCC(C(=O)N1CCN(c2ncnc3c2C(C)CC3O)CC1)c1ccc(Cl)cc1, the IC50 (as a rule, the concentration needed to halve the response being measured) (curve of first compound, second compound 0.3 µM) was above 10000 nM; the IC50 (curve of first compound, second compound 0.949 µM) was above 10000 nM; the IC50 (curve of first compound, second compound 3 µM) was 2760 nM; the IC50 (curve of first compound, second compound 9.49 µM) is below 31.6 nM; the IC50 (curve of first compound, second compound 30 µM) is below 31.6 nM. For the same compound, the viability, T/C – broadly, the ratio of treated to control – is 101% (second compound 0.3 µM, first compound 0.0316 µM); 113% (second compound 0.3 µM, first compound 0.1 µM); 127% (second compound 0.3 µM, first compound 0.316 µM); 112% (second compound 0.3 µM, first compound 1 µM); 119% (second compound 0.3 µM, first compound 3.16 µM); 83.3% (second compound 0.3 µM, first compound 10 µM). The viability, T/C reads like this: (second compound 0.949 µM, first compound 0.0316 µM) 120%; (second compound 0.949 µM, first compound 0.1 µM) 119%; (second compound 0.949 µM, first compound 0.316 µM) 128%; (second compound 0.949 µM, first compound 1 µM) 119%; (second compound 0.949 µM, first compound 3.16 µM) 110%; (second compound 0.949 µM, first compound 10 µM) 51.3%. For the same compound, the viability, T/C reads like this: (second compound 3 µM, first compound 0.0316 µM) 94.9%; (second compound 3 µM, first compound 0.1 µM) 91%; (second compound 3 µM, first compound 0.316 µM) 80%; (second compound 3 µM, first compound 1 µM) 52.2%; (second compound 3 µM, first compound 3.16 µM) 59.3%; (second compound 3 µM, first compound 10 µM) 37.8%. Also, the viability, T/C is 28% (second compound 9.49 µM, first compound 0.0316 µM); 27.4% (second compound 9.49 µM, first compound 0.1 µM); 25.1% (second compound 9.49 µM, first compound 0.316 µM); 24.9% (second compound 9.49 µM, first compound 1 µM); 21.5% (second compound 9.49 µM, first compound 3.16 µM); 16.1% (second compound 9.49 µM, first compound 10 µM). For the same compound, the viability, T/C is, setting by setting: (second compound 30 µM, first compound 0.0316 µM) 14.2%; (second compound 30 µM, first compound 0.1 µM) 14.4%; (second compound 30 µM, first compound 0.316 µM) 11.4%; (second compound 30 µM, first compound 1 µM) 11.3%; (second compound 30 µM, first compound 3.16 µM) 10%; (second compound 30 µM, first compound 10 µM) 6.48%.

Consider `CC(C)(C)c1nc(-c2cccc(NS(=O)(=O)c3c(F)cccc3F)c2F)c(-c2ccnc(N)n2)s1`, for which the viability, T/C (compound 0.0316 µM) is 104% and 106%; the viability, T/C (compound 0.1 µM) is 123% and 114%; the viability, T/C (compound 0.316 µM) was 132% and 107%; the viability, T/C (compound 1 µM) was 119% and 95.5%; the viability, T/C (compound 3.16 µM) was 73.2% and 54.6%; the viability, T/C (compound 10 µM) was 18.3% and 28.5%. For the same compound, for the setting “curve of compound”, the IC50 is 5150 nM and 3870 nM.

`CC(C)CC(NC(=O)CNC(=O)c1cc(Cl)ccc1Cl)B1OC(=O)CC(CC(=O)O)(C(=O)O)O1` (centres undefined): the viability, T/C was 93.3% and 102% (compound 0.000316 µM); 97.9% and 110% (compound 0.001 µM); 104% and 111% (compound 0.00316 µM); 95.5% and 107% (compound 0.01 µM); 7.86% and 10.7% (compound 0.0316 µM); 0.16% and 0.17% (compound 0.1 µM). Also, the IC50 (curve of compound) was 18.2 nM and 19.7 nM.
